Experimental data published in patent US11639368B2, “Method for preventing and treating hyperpermeability” (Apeptico Forschung UND E[…], priority 2009, dated 2023).
“Also recorded” adds a separate entry of the source.

Assays:
[1] = system: arterial endothelial cells; experiment: Reactive oxygen molecules in endothelial cells under oxygen deficiency, measured by EPR; type: cell-based; conditions: oxygen deficiency (0.1% oxygen, hypoxic gas mixture), 50 μg/ml of peptide
Method: Cell Culture of Endothelial Cells
For the generation of reactive oxygen molecules, arterial endothelial cells were cultivated in an oxygen-deficient gas mixture of 0.1% oxygen, 5% […] and 94.9% nitrogen (hypoxic gas mixture). In control experiments, the gas concentrations were 21% oxygen, 5% […] and 74% nitrogen (normoxic gas mixture).
After 90 minutes under oxygen-deficient conditions, the endothelial cells were cultivated with 21% oxygen for a further 30 minutes. Thereafter, 20 μl of a solution consisting of 20 uM 1-hydroxy-3-methoxycarbonyl-2,2,5,5-tetramethylpyrrolidine HCl (CHM), 20 μM DPBS, 25 μM desferrioxamine and 5 μM diethyldithiocarbamate as well as 2 μl of DMSO were added to the cells.
Trypsinization of the Cells.
Following cell culture, the cells were individualized in a manner common in the laboratory by adding a trypsin solution. The endothelial cells were washed and suspended in 35 μl of a solution consisting of DPBS and 25 μM desferrioxamine and 5 μM diethyldithiocarbamate.
Measurement of the Electron Paramagnetic Resonance (EPR)
The determination of the electron paramagnetic resonance (EPR), also called electron spin resonance, serves the investigation of paramagnetic substances, e.g. for detection of unpaired electrons in reactive oxygen molecules (radicals of the oxygen). […]

myosin light chain = experiment: Phosphorylation of the myosin light chain (protein blot, densitometry); type: cell-based; conditions: human endothelial lung cells; for increase in the content of phosphorylated myosin light chain by listeriolysin: 250 ng/ml of listeriolysin, 50 μg/ml of peptide
Excerpt: Human endothelial cells of the lungs, isolated from capillaries of the lungs, were acquired from the company Lonza.
(§1) The microbial toxins listeriolysin (LLO) and pneumolysin (PLY) were acquired from the University of Giessen.
Human endothelial cells of the lungs, isolated from capillaries of the lungs, were cultivated in a manner common in the laboratory.
Determination of Phosphorylation of the Myosin Light Chain
For the determination of phosphorylation of the myosin light chain and the influence of the peptide SEQ ID No. 1 on the phosphorylation, the previously cultivated human endothelial cells of the lungs were washed with phosphate buffer pH 7.4, which contained 1 mM orthovanadate. The cell contents was lysed by incubation of the cells with a solution of 20 mM tris buffer (pH 7.4), 150 mM mol/1 of NaCl, 1 mM EDTA, 1 mM EGTA, 1% Triton X-100, 2.5 mM sodiumpyrophosphate, 1 mM betaglycerophosphate, 1 mM sodiumvanadate, 1 μg/ml of leupeptine, 1 mM phenylmethylsulfonylfluoride. In addition, the cells were digested with ultrasound. The cell lysate was centrifuged in order to obtain the soluble components. The soluble cell lysate was subsequently applied to denaturing sodium dodecyl sulfate polyacrylamide gel electrophoresis in a manner common in the laboratory, and the proteins were separated according to their masses. Thereafter, the proteins were transferred onto nitrocellulose membranes. The protein blots were treated with a solution of 0.1% Tween 20 and 5% dry milk powder for 1 hour in a manner common in the laboratory. Subsequently, the protein blots were incubated with antibodies directed against either the myosin light chain or the phosphorylated myosin light chain.
In order to make either the myosin light chain or the phosphorylated myosin light chain visible, the antibodies were made visible on diagnostic film using chemiluminescence in a manner common in the laboratory. The signal strength was determined with densitometry, and the ratio of myosin light chain to phosphorylated myosin light chain was determined.

[2] = system: epithelial sodium channel (ENaC); experiment: Expression of the epithelial sodium channel by real-time PCR in H441 cells; type: cell-based, human; conditions: 50 μg/ml of peptide, H441 epithelial cells of the lungs
Method: (§2) Human epithelial cells of the lungs of type H441 were acquired from the company ATTC.
(§3) Epithelial cells of the lungs of type H441 were cultivated in a manner common in the laboratory in a commercial RPMI 1640 medium with the additives 2 mM L-glutamine, 1.5 g/l of sodium carbonate, 4.5 g/l of glucose, 10 mM HEPES buffer pH 7.4, 10% bovine serum.
Verification of the Expression of the Epithelial Sodium Channel
In the cultivated epithelial cells, the expression of the sodium channel (ENaC) was determined by means of “real-time PCR”.

[3] = system: human endothelial cells of the lungs; experiment: Toxin-induced hyperpermeability, transendothelial electric resistance (ECIS), endothelial cells; type: cell-based; conditions: 500 ng/ml of listeriolysin, 50 μg/ml of peptide
[4] = system: Human epithelial cells of the lungs of type H441; experiment: Toxin-induced hyperpermeability, electric resistance (ECIS), epithelial cells; type: cell-based; conditions: 1 μg/ml of listeriolysin, 50 μg/ml of peptide
Method: as §2, §1
as §3, with “serum. The ECIS experiments took place in serum-free medium.” for “serum.”
In order to cause hyperpermeability, i.e. injuries of the endothelial cells and epithelial cells, the human epithelial cells of the lungs as well as the human endothelial cells of the lungs were cultivated in a manner common in the laboratory up to the formation of a continuous cell layer, and subsequently, the toxins listeriolysin or pneumolysin, respectively, were added.

influenza A virus = experiment: Course of disease in mice with viral lung infection; type: in vivo, BALB/c mice; conditions: influenza A infected mice
Method: The following animal study groups were examined in respect of the effect of peptide SEQ ID No. 1 on a viral lung infection:
Group 1. Negative control (PBS via nasal).
Group 2. Positive control (infection with approx. 2,000 units of influenza A virus via nasal).
Group 3. Test group (infection with approx. 2,000 units of influenza A virus via nasal, as well as intratracheal administration of 10 μg of peptide SEQ ID No. 1).
In each group, 6 BALB/c mice were used.
The following treatment scheme was followed:
Group 1: Administration of PBS via nasal.
Group 2: Infection of the mice with influenza virus A via nasal.
Group 3: Infection of the mice with influenza virus A via nasal and administration of peptide SEQ ID No. 1.
Days of treatment 0, 2, 4, 6, 8:
Group 1: Intratracheal administration of PBS.
Group 2: Intratracheal administration of PBS.
Group 3: Intratracheal administration of peptide SEQ ID No. 1.
Days of treatment 0 to 10:
Daily observation of body temperature, body weight and survival rate of the test animals.

[5] = Lavage-induced large animal ARDS model; type: in vivo, pigs
Method: Material & methods: With the consent of the competent animal protection commission, lung damage was induced in two pigs (25 kg) under general anesthesia by surfactant depletion (four-time bronchoalveolar lavage, 30 ml/kg of body weight each). Subsequently, 1 mg/kg of body weight AP301 (peptide SEQ ID No. 1) was endotracheally applied. Animal 1 (1) received a deep tracheal injection of the overall dose, while for animal 2 (2), nebulization of the same dosage over 30 min was performed. Thereafter, there was a five-hour ventilation period. The arterial oxygen partial pressure (paO2) was recorded using an intra-aortic real-time measuring probe (FOXY, Ocean Optics, USA) validated in advance. Spirometry and hemodynamics were permanently registered as well as measurements with the PiCCO technology performed at half-hour intervals.
The ventilation settings were constantly kept in the non-protective range (Pmax 40 mbar, tidal volume≥10 ml/kg of body weight, PEEP≤10 mbar, frequency 25-35/min) in order to avoid therapeutic effects. […] 162.8 mmHg (1) or 224.6 mmHg (2), respectively. With nebulization of AP301, this occurred delayed compared to the deep tracheal application, however, it was more pronounced.

[6] = system: hyperpermeability of the lungs of mice; experiment: Pneumolysin-induced hyperpermeability and acute lung damage in mice (Evans blue, leukocytes in bronchoalveolar liquid); conditions: 250 ng of pneumolysin and 50 μg of peptide per mouse intratracheal, 5.5 hours

Compound | formation of reactive oxygen molecules by the endothelial cells [1] | increase in the content of phosphorylated myosin light chain by listeriolysin (myosin light chain) | expression of the sodium channel ENaC (mRNA) [2] | hyperpermeability caused by the toxin listeriolysin (electric resistance) [3] | hyperpermeability caused by the toxin listeriolysin (electric resistance) [4] | content of phosphorylated myosin light chain, peptide alone (myosin light chain; 50 μg/ml of peptide without toxin) | reduction of body weight (influenza A virus; 10 μg of peptide intratracheal on days 0, 2, 4, 6, 8, within 10 days) | body temperature after 7 days (influenza A virus; 10 μg of peptide intratracheal, after 7 days) | mortality after 10 days (influenza A virus; 10 μg of peptide intratracheal, fraction of test animals, 10 days) | body temperature subsequently (after day 7) (influenza A virus; 10 μg of peptide intratracheal, recovery after day 7) | decrease in body weight (overall conclusion) (influenza A virus; in words) | lowering of the body temperature (overall conclusion) (influenza A virus; in words) | survival rate (overall conclusion) (influenza A virus; in words) | paO2 increase, max. ([5]; animal 1, 1 mg/kg deep tracheal injection) | paO2 increase, max. ([5]; animal 2, 1 mg/kg nebulization over 30 min) | duration of continuous improvement of oxygenation ([5]; both pigs, 1 mg/kg endotracheally) | reduction of the extra-vascular lung water compared to the initial value following surfactant depletion ([5]; pigs, 1 mg/kg endotracheally, PiCCO) | undesired hemodynamic effects during application of the drug ([5]; pigs, 1 mg/kg of body weight endotracheally) | number of leukocytes in the bronchoalveolar liquid [6] | toxin-mediated development of hyperpermeability (Evans blue dye in lung tissue) [6]
CGQREAPAGAAAKPWYC [peptide SEQ ID No. 3, reference compound] | does not result in an inhibition | no influence | no substantial increase |  |  |  |  |  |  |  |  |  |  |  |  |  |  |  |  | 
C[C@@H]1NC(=O)CNC(=O)[C@H](CCC(=O)O)NC(=O)[C@@H]2CCCN2C(=O)[C@H]([C@@H](C)O)NC(=O)[C@H](CCC(=O)O)NC(=O)[C@H](CCCNC(=N)N)NC(=O)[C@H](CCC(N)=O)NC(=O)CNC(=O)[C@@H](N)CSSC[C@@H](C(=O)O)NC(=O)[C@H](Cc2ccc(O)cc2)NC(=O)[C@H](Cc2c[nH]c3ccccc23)NC(=O)[C@@H]2CCCN2C(=O)[C@H](CCCCN)NC(=O)[C@H](C)NC(=O)[C@H](CCC(=O)O)NC1=O [peptide SEQ ID No. 1, CGQRETPEGAEAKPWYC] | no reactive oxygen molecules are formed | inhibits | triplication; also recorded: substantial increase | inhibited | inhibited | no influence | approx. 10% | 35 °C | ⅓ | 37 °C | reduces the decrease | reduces the lowering | clearly increased | 162.8 mmHg | 224.6 mmHg | about 1.5 hours | 15.8-52.5% | no undesired hemodynamic effects | clear reduction; also recorded: clearly less leukocytes | inhibition
